Experimental findings from article PMC7587356, “High-Throughput Screening for Inhibitors of the SARS-CoV-2 Protease Using a FRET-Biosensor” (Molecules, 2020) are described below.

The target of the experiment is SARS-CoV-2 3CLpro (Severe acute respiratory syndrome coronavirus 2, UniProt P0DTD1). Kind of experiment: biochemical. The class given is biochemical. Further details: Replicate_1 / Replicate_2 / mean / mean (LOPAC_screen_w_protease): unit not given here. The note with it: for inhibition at 5 µM: 4 h.
Setting [1] is: sheet LOPAC_screen_w_protease, primary screen of LOPAC1280 at 5 µM with protease, mean of the two replicates, read-out: mean.
[2] abbreviates: sheet LOPAC_screen_w_protease, primary screen of LOPAC1280 at 5 µM with protease, replicate 1, read-out: Replicate_1.
Where [3] appears, read: sheet LOPAC_screen_w_protease, primary screen of LOPAC1280 at 5 µM with protease, replicate 2, read-out: Replicate_2.
Where [4] appears, read: sheet LOPAC_screen_w_protease, LOPAC1280 at 5 µM, mean of two replicates.
[5] abbreviates: sheet LOPAC_screen_w_protease, LOPAC1280 at 5 µM, replicate 1.
Setting [6] is: sheet LOPAC_screen_w_protease, LOPAC1280 at 5 µM, replicate 2.
[7] abbreviates: LOPAC1280 primary screen with protease, 5 µM compound, mean of the two replicates.
[8] abbreviates: LOPAC1280 primary screen with protease, 5 µM compound, replicate 1.
The mark [9] stands for this setting: LOPAC1280 primary screen with protease, 5 µM compound, replicate 2.
Where [10] appears, read: LOPAC1280 primary screen with protease, 5 µM compound, mean of two replicates.
The mark [11] stands for this setting: LOPAC1280 primary screen with protease, 5 µM compound, replicate 1, read-out: Replicate_1 (LOPAC_screen_w_protease).
Where [12] appears, read: LOPAC1280 primary screen with protease, 5 µM compound, replicate 2, read-out: Replicate_2 (LOPAC_screen_w_protease).
The mark [13] stands for this setting: sheet LOPAC_screen_w_protease, LOPAC1280 primary screen with protease, 5 µM compound, mean of the two replicates.
The mark [14] stands for this setting: sheet LOPAC_screen_w_protease, LOPAC1280 primary screen with protease, 5 µM compound, replicate 1.
Where [15] appears, read: sheet LOPAC_screen_w_protease, LOPAC1280 primary screen with protease, 5 µM compound, replicate 2.
The mark [16] stands for this setting: sheet LOPAC_screen_w_protease, LOPAC1280 primary screen at 5 µM, with protease, mean of the two replicates.
The mark [17] stands for this setting: sheet LOPAC_screen_w_protease, LOPAC1280 primary screen at 5 µM, with protease, replicate 1.
Setting [18] is: sheet LOPAC_screen_w_protease, LOPAC1280 primary screen at 5 µM, with protease, replicate 2.
Setting [19] is: sheet LOPAC_screen_w_protease, primary screen with protease, compound at 5 µM, mean of two replicates.
Setting [20] is: sheet LOPAC_screen_w_protease, primary screen with protease, compound at 5 µM, replicate 1.
Setting [21] is: sheet LOPAC_screen_w_protease, primary screen with protease, compound at 5 µM, replicate 2.
The mark [22] stands for this setting: sheet LOPAC_screen_w_protease, primary screen with protease, 5 µM, mean of two replicates, read-out: mean.
Where [23] appears, read: sheet LOPAC_screen_w_protease, primary screen with protease, 5 µM, replicate 1, read-out: Replicate_1.
Where [24] appears, read: sheet LOPAC_screen_w_protease, primary screen with protease, 5 µM, replicate 2, read-out: Replicate_2.
[25] abbreviates: sheet LOPAC_screen_w_protease, LOPAC1280 primary screen with protease, 5 µM compound, mean of the two replicates, read-out: mean.
The mark [26] stands for this setting: sheet LOPAC_screen_w_protease, LOPAC1280 primary screen with protease, 5 µM compound, replicate 1, read-out: Replicate_1.
The mark [27] stands for this setting: sheet LOPAC_screen_w_protease, LOPAC1280 primary screen with protease, 5 µM compound, replicate 2, read-out: Replicate_2.

Counter-ions that a name gives are not always drawn. Like-named read-outs stand apart in the source and are kept apart here.

Regarding `O=C(O)CC[N+](=O)[O-]` [3-Nitropropionic acid], the inhibition at 5 µM is, setting by setting: under setting [1], 3.54%; under setting [2], 2.8%; under setting [3], 4.28%.
Regarding `O=C(O)C1=CC(=C(c2ccc(O)c(C(=O)O)c2)c2ccc(O)c(C(=O)O)c2)C=CC1=O` [Aurintricarboxylic acid, reference compound], the inhibition at 5 µM by setting is: (read-out: Replicate_1 (LOPAC screen with protease)) 31.5%; (read-out: Replicate_2 (LOPAC screen with protease)) 31.9%; (read-out: mean (LOPAC screen with protease)) 31.7%.
Regarding `Nc1ccc(N2C(=O)c3ccccc3C2=O)c(Cl)c1` [N-(4-Amino-2-chlorophenyl)phthalimide], the mean (sheet LOPAC_screen_w_protease, primary screen with protease, mean of two replicates) is listed as 2.38. Moreover, the Replicate_1 (sheet LOPAC_screen_w_protease, primary screen with protease, replicate 1) is listed as 2.0208. This compound yielded a Replicate_2 (sheet LOPAC_screen_w_protease, primary screen with protease, replicate 2) of 2.74.
Under setting [4], `CCCN(CCc1ccccc1)C1CCc2c(O)cccc2C1.Cl` (racemic) [(±)-PPHT hydrochloride] had a mean of 1.126. The compound also yielded a Replicate_1 under setting [5] of 1.344. The same compound gave a Replicate_2 under setting [6] of 0.9086.
For the compound `CCCCCCCC/C=C\CCCCCCCC(=O)NCCc1ccc(O)c(O)c1` [N-Oleoyldopamine], the “mean (LOPAC_screen_w_protease)” value under setting [7] is given as 2.025. Moreover, under setting [8], the “Replicate_1 (LOPAC_screen_w_protease)” value was found to be 0.1379. The “Replicate_2 (LOPAC_screen_w_protease)” value under setting [9] stood at 3.912.
As for `OCc1ccc(-c2nn(Cc3ccccc3)c3ccccc23)o1` [YC-1], the “mean (LOPAC_screen_w_protease)” value under setting [10] came out at 1.333. The “Replicate_1 (LOPAC_screen_w_protease)” value under setting [8] is listed as 0.3284. In addition, under setting [9], the “Replicate_2 (LOPAC_screen_w_protease)” value is listed as 2.338.
Turning to `O=C(O)CCC(C(=O)O)N1C(=O)c2ccccc2C1=O` [L-Glutamic acid, N-phthaloyl-], under setting [4], the mean is listed as 1.263. The Replicate_1 under setting [5] turned out to be 1.846. Moreover, the Replicate_2 under setting [6] is 0.6803.
With `CC(=O)O[C@H]1C[C@@H]2CC[C@@H]3[C@H](CC[C@@]4(C)[C@H]3C[C@H]([N+]3(C)CCCCC3)[C@@H]4OC(C)=O)[C@@]2(C)C[C@@H]1[N+]1(C)CCCCC1` [Pancuronium bromide], the inhibition at 5 µM came to 3.86% under setting [1], 2.32% under setting [2] and 5.41% under setting [3].
As for `CCCN(CCC)CCc1ccc(O)c(O)c1` [Dipropyldopamine hydrobromide], the inhibition at 5 µM reads like this: under setting [11], 3.8%; under setting [12], 0.246%. For the same compound, under setting [7], the “mean (LOPAC_screen_w_protease)” value stood at 2.021.
In the case of MDL 26,630 trihydrochloride, the mean under setting [13] was 6.178. The compound further came in with a Replicate_1 under setting [14] of 5.659. This compound also returned a Replicate_2 under setting [15] of 6.697.
Consider `CN1C2CCC1CC(OC(=O)c1c[nH]c3ccccc13)C2.Cl` (stereo not drawn), for which the mean under setting [16] is listed as 0.5358. In addition, under setting [17], the Replicate_1 was found to be 1.053. Besides, under setting [18], the Replicate_2 is recorded as 0.01899.
For `Br.CO[C@H]1CC=C2CCN3CCC4=C(CC(=O)OC4)[C@]23C1` [Dihydro-beta-erythroidine hydrobromide], the “mean (LOPAC_screen_w_protease)” value under setting [7] came to 2.038. Also, under setting [8], the “Replicate_1 (LOPAC_screen_w_protease)” value is listed as 1.621. In addition, the “Replicate_2 (LOPAC_screen_w_protease)” value under setting [9] is on record as 2.454.
For the compound `COc1ccc(CCCOC(Cn2ccnc2)c2ccc(OC)cc2)cc1` (stereo not drawn) [SKF 96365], the inhibition at 5 µM stood at 1.52% under setting [11] and 2.09% under setting [12]. In addition, under setting [7], the “mean (LOPAC_screen_w_protease)” value is given as 1.802.
Under setting [13], S-Nitroso-N-acetylpenicillamine gave a mean of 5.369. The compound further returned a Replicate_1 under setting [14] of 5.411. This compound returned a Replicate_2 under setting [15] of 5.326.
On to `CC(C)(C)c1onc(OCP(=O)(O)O)c1CC(N)C(=O)O` (stereo not drawn) [ATPO], for which the mean under setting [19] is recorded as 3.0772. The same compound had a Replicate_1 under setting [20] of 4.002. For the same compound, the Replicate_2 under setting [21] is 2.152.
As for `O=C(O)c1nn(Cc2ccc(Cl)cc2Cl)c2ccccc12` [Lonidamine], the inhibition at 5 µM runs as follows: under setting [22], 0.331%; under setting [23], 0.572%; under setting [24], 0.0889%.
Take `Clc1ccc2c(c1)C(N1CCNCC1)=Nc1ccccc1O2` [Amoxapine]: the inhibition at 5 µM stood at 3.27% under setting [1], 3.65% under setting [2] and 2.89% under setting [3].
Consider `Cl.Fc1ccc(C(OCCCc2c[nH]cn2)c2ccc(F)cc2)cc1`, for which the mean under setting [19] was found to be 2.8. Under setting [20], this compound yielded a Replicate_1 of 1.774. In addition, the Replicate_2 under setting [21] was 3.825.
As for `COc1cc(CNC(=O)CCCCCCC(C)C)ccc1O` [Dihydrocapsaicin], the inhibition at 5 µM was determined as 3.14% (sheet LOPAC_screen_w_protease, primary screen with protease, compound at 5 µM, mean of two replicates, read-out: mean); 4.91% (sheet LOPAC_screen_w_protease, primary screen with protease, compound at 5 µM, replicate 1, read-out: Replicate_1); 1.38% (sheet LOPAC_screen_w_protease, primary screen with protease, compound at 5 µM, replicate 2, read-out: Replicate_2).
Consider `C=CCN1CC[C@]23CCCC[C@H]2[C@H]1Cc1ccc(O)cc13` [Levallorphan tartrate], for which the inhibition at 5 µM is, setting by setting: under setting [25], 4.19%; under setting [26], 5.56%; under setting [27], 2.81%.
On to `COCC(=O)O[C@]1(CCN(C)CCCc2nc3ccccc3[nH]2)CCc2cc(F)ccc2[C@@H]1C(C)C` [Mibefradil dihydrochloride], for which the inhibition at 5 µM reads like this: under setting [25], 4.42%; under setting [26], 3.3%; under setting [27], 5.54%.
As to `O=C(O)C1CN(CCCP(=O)(O)O)CCN1` (racemic) [(±)-CPP], the mean under setting [13] is listed as 4.122. The Replicate_1 under setting [14] worked out at 5.3739. For the same compound, under setting [15], the Replicate_2 is on record as 2.869.
For `Nc1nc(OCc2ccccc2)c2nc[nH]c2n1` [O6-benzylguanine], the inhibition at 5 µM runs as follows: under setting [11], 0.721%; under setting [12], 2.08%. The “mean (LOPAC_screen_w_protease)” value under setting [10] worked out at 1.401.
As to `CN1CC[C@]2(CCN3CCc4c(oc5ccccc45)[C@@H]3C2)N(C)C1=O` [MK-912], the “mean (LOPAC_screen_w_protease)” value under setting [10] was 1.637. Besides, the “Replicate_1 (LOPAC_screen_w_protease)” value under setting [8] is recorded as 1.746. Also, under setting [9], the “Replicate_2 (LOPAC_screen_w_protease)” value was 1.529.
For `CCN(CC)CCNC(=O)c1ccc(NC(C)=O)cc1.Cl` [N-Acetylprocainamide hydrochloride] the same measures were 1.374, 0.6051 and 2.1421.
Under “sheet LOPAC_screen_w_protease, primary screen with protease, 5 µM, mean of two replicates”, `CC(=O)OC(C)C[N+](C)(C)C.[Cl-]` (stereo not drawn) [Acetyl-beta-methylcholine chloride] had a mean of 0.2718. Under “sheet LOPAC_screen_w_protease, primary screen with protease, 5 µM, replicate 1”, this compound returned a Replicate_1 of 1.198. This compound displayed a Replicate_2 (sheet LOPAC_screen_w_protease, primary screen with protease, 5 µM, replicate 2) of -0.6541.
On to `Cl.NC(N)=NCCNS(=O)(=O)c1cccc2cnccc12` [HA-1004 hydrochloride], for which the “mean (LOPAC_screen_w_protease)” value under setting [10] was 1.6. The “Replicate_1 (LOPAC_screen_w_protease)” value under setting [8] is 0.9796. Also, the “Replicate_2 (LOPAC_screen_w_protease)” value under setting [9] came out at 2.221.
For `CCNC(=O)N1CCN(CCCC(c2ccc(F)cc2)c2ccc(F)cc2)CC1` [Amperozide hydrochloride], the inhibition at 5 µM was 0.1% under setting [22], 0.58% under setting [23] and -0.38% under setting [24].
In the case of `CN1CCN(c2nc3cc(C(F)(F)F)ccc3n3cccc23)CC1.O=C(O)/C=C\C(=O)O` [CGS-12066A maleate], the mean under setting [16] is 0.5818. The Replicate_1 under setting [17] came to 1.428. Under setting [18], this compound displayed a Replicate_2 of -0.2648.
Compound `CCCCCCCCCCCCCCCC(=O)NCC(COP(=O)([O-])OCC[N+](C)(C)C)OCC` (racemic) yielded a mean (sheet LOPAC_screen_w_protease, primary screen of LOPAC1280 at 5 µM with protease, mean of the two replicates) of 3.428. Also, the Replicate_1 (sheet LOPAC_screen_w_protease, primary screen of LOPAC1280 at 5 µM with protease, replicate 1) is recorded as 7.48. In addition, the Replicate_2 (sheet LOPAC_screen_w_protease, primary screen of LOPAC1280 at 5 µM with protease, replicate 2) is on record as -0.6245.
Consider `Cc1cc(C(C)(C)C)c(O)c(C)c1CC1=NCCN1` [Oxymetazoline hydrochloride], for which the inhibition at 5 µM came out at 5.36% under setting [25], 4.63% under setting [26] and 6.09% under setting [27].
